Experimental data as given in the Deep4Chem optical property database.

Assay: solvent given as SMILES

For `CCn1c2cc(-c3cccs3)ccc2c2ccc(-c3cccs3)cc21`, which emission maximum (in ClCCl) is on record?
The emission maximum was 391 nm.

With `O=c1c2cc(F)c(N3CCOCC3)cc2sc2cc(N3CCOCC3)c(F)cc12` as the compound, how does the emission maximum (in CCO) read?
Its emission maximum is 481 nm.

With `COc1cc2c(cc1/C=C(\C#N)c1nc3ccccc3s1)c1ccccc1n2C` as the compound, how does the emission maximum (in C1CCOC1) read?
The emission maximum was 499 nm.

What about the emission maximum (in CC#N) of the same compound?
The emission maximum was 509 nm.

What about the emission maximum (in CCOC(C)=O) of the same compound?
The emission maximum was 493 nm.

And the emission maximum (in CN(C)C=O)?
The emission maximum was 508 nm.

And the emission maximum (in CO)?
Its emission maximum is 510 nm.

And the emission maximum (in CS(C)=O)?
Its emission maximum is 518 nm.

And the emission maximum (in Cc1ccccc1)?
The emission maximum was 494 nm.

What about the emission maximum (in ClC(Cl)Cl) of the same compound?
The emission maximum was 504 nm.

What about the emission maximum (in ClCCl) of the same compound?
Its emission maximum is 501 nm.

For `c1ccc(N2N=C(c3ccc4ccc5cccc6ccc3c4c56)CC2c2ccc3ccc4cccc5ccc2c3c45)cc1` (stereo not drawn), which emission maximum (in ClCCl) is on record?
Its emission maximum is 508 nm.

Which emission maximum (in CC#N) does the source give for `C1=Cc2ccccc2Cc2ccccc21` here?
Its emission maximum is 383 nm.

And the emission maximum (in CO)?
Its emission maximum is 380 nm.

For `F[B-]1(F)n2c(Cl)c(Cl)c(Br)c2C(Oc2ccccc2)=C2C(Br)=C(Cl)C(Cl)=[N+]21`, which emission maximum (in ClCCl) is on record?
The emission maximum was 541 nm.

For `Cc1ccc(C2=C3C=CC(c4ccccc4)=[N+]3[B-](F)(F)n3c2ccc3-c2ccccc2)cc1`, which emission maximum (in C1CCCCC1) is on record?
Its emission maximum is 585 nm.

And the emission maximum (in C1CCOC1)?
Its emission maximum is 586 nm.

And the emission maximum (in C1COCCO1)?
The emission maximum was 587 nm.

And the emission maximum (in CCOC(C)=O)?
The emission maximum was 583 nm.

And the emission maximum (in CO)?
The emission maximum was 582 nm.

What about the emission maximum (in Cc1ccccc1) of the same compound?
Its emission maximum is 589 nm.

What about the emission maximum (in ClC(Cl)Cl) of the same compound?
The emission maximum was 588 nm.

For `CC(=O)OC[C@H]1O[C@@H](OCC#Cc2ccc(C3=C4C(C)=CC(/C=C/c5ccc(N(C)C)cc5)=[N+]4[B-](F)(F)n4c(/C=C/c5ccc(N(C)C)cc5)cc(C)c43)cc2)[C@H](OC(C)=O)C(OC(C)=O)[C@@H]1OC(C)=O` (stereo partly drawn), which emission maximum (in CC#N) is on record?
Its emission maximum is 769 nm.

What does the source list for `CCCSC1=[N+]2C(=C(c3ccccc3)c3ccc(SCCC)n3[B-]2(F)F)C=C1SC#N`?
emission maximum (in CC#N): 584 nm; emission maximum (in CCCCCC): 597 nm; emission maximum (in CCOC(C)=O): 588 nm; emission maximum (in CO): 582 nm; emission maximum (in ClCCl): 586 nm

With `CCCCCc1ccc(C#Cc2cc(C#Cc3ccc(CCCCC)cc3)c3ccc4c(C(=O)c5ccccc5)cc(C#Cc5ccc(CCCCC)cc5)c5ccc2c3c54)cc1` as the compound, how does the emission maximum (in ClCCl) read?
Its emission maximum is 511 nm.

Which emission maximum (in ClC(Cl)Cl) does the source give for `O=c1c2cc3ccc4cccc5ccc(c2c(=O)n1-c1ccccc1)c3c45` here?
Its emission maximum is 461 nm.

For `O=C(N/N=C/c1ccccc1O)c1cccc2ccccc12`, which emission maximum (in C1CCOC1) is on record?
The emission maximum was 436 nm.

What about the emission maximum (in CC#N) of the same compound?
Its emission maximum is 376 nm.

And the emission maximum (in CC(C)=O)?
The emission maximum was 428 nm.

And the emission maximum (in CCO)?
Its emission maximum is 429 nm.

What about the emission maximum (in CN(C)C=O) of the same compound?
The emission maximum was 560 nm.

What about the emission maximum (in CS(C)=O) of the same compound?
The emission maximum was 336 nm.

What about the emission maximum (in ClCCl) of the same compound?
Its emission maximum is 393 nm.

Which emission maximum (in C1CCOC1) does the source give for `O=S(=O)(c1ccc(-c2ccc(-c3nc4c5ccccc5c5ccccc5c4n3-c3ccccc3)cc2)cc1)c1ccc(-c2ccc(-c3nc4c5ccccc5c5ccccc5c4n3-c3ccccc3)cc2)cc1` here?
The emission maximum was 451 nm.

What about the emission maximum (in CC#N) of the same compound?
The emission maximum was 479 nm.

And the emission maximum (in CC(C)=O)?
The emission maximum was 468 nm.

What about the emission maximum (in CC(C)OC(C)C) of the same compound?
The emission maximum was 437 nm.

What about the emission maximum (in CCCCCC) of the same compound?
The emission maximum was 404 nm.

What about the emission maximum (in CCCCOCCCC) of the same compound?
The emission maximum was 420 nm.

And the emission maximum (in CCN(CC)CC)?
Its emission maximum is 413 nm.

What about the emission maximum (in CCOC(C)=O) of the same compound?
The emission maximum was 448 nm.

What about the emission maximum (in CCOCC) of the same compound?
Its emission maximum is 438 nm.

And the emission maximum (in CN(C)C=O)?
The emission maximum was 478 nm.

What about the emission maximum (in ClC(Cl)Cl) of the same compound?
The emission maximum was 450 nm.

And the emission maximum (in ClCCl)?
Its emission maximum is 461 nm.

What about the emission maximum (in c1ccc2c(c1)c1ccccc1n2-c1ccc(-c2ccc(-n3c4ccccc4c4ccccc43)cc2)cc1) of the same compound?
Its emission maximum is 443 nm.

Which emission maximum (in Cc1ccccc1) does the source give for `CC1(C)c2ccccc2N(c2ccc3c(c2)C2(c4cc(N5c6ccccc6C(C)(C)c6ccccc65)ccc4-3)c3ccccc3S(=O)(=O)c3ccccc32)c2ccccc21` here?
Its emission maximum is 437 nm.

With `CCCCC1C(=O)c2cc(Oc3ccc(C(C)(C)C)cc3)c3c4c(Oc5ccc(C(C)(C)C)cc5)cc5c6c(cc(Oc7ccc(C(C)(C)C)cc7)c(c7c(Oc8ccc(C(C)(C)C)cc8)cc(c2c37)C1=O)c64)C1=C(C5=O)c2ccc3ccccc3[n+]2[B-](F)(F)O1` (stereo not drawn) as the compound, how does the emission maximum (in ClCCl) read?
Its emission maximum is 655 nm.

For `O=[N+]([O-])c1ccc(S(=O)(=O)Nc2ccc(C#Cc3ccc4ccc5ccc(C#Cc6ccc(NS(=O)(=O)c7ccc([N+](=O)[O-])cc7[N+](=O)[O-])cc6)c6ccc3c4c56)cc2)c([N+](=O)[O-])c1`, which emission maximum (in CO) is on record?
The emission maximum was 539 nm.

Which emission maximum (in CC#N) does the source give for `C=Cc1cc2cc3c(cc2oc1=O)OCO3` here?
The emission maximum was 448 nm.

Which emission maximum (in CC#N) does the source give for `C[n+]1ccc(/C=C/c2ccc([O-])cc2)cc1` here?
The emission maximum was 606 nm.

What about the emission maximum (in CC(C)=O) of the same compound?
Its emission maximum is 610 nm.

And the emission maximum (in CC(C)O)?
The emission maximum was 594 nm.

And the emission maximum (in CCCO)?
The emission maximum was 587 nm.

What about the emission maximum (in CCO) of the same compound?
The emission maximum was 582 nm.

And the emission maximum (in CN(C)C=O)?
The emission maximum was 608 nm.

What about the emission maximum (in CO) of the same compound?
The emission maximum was 576 nm.

What about the emission maximum (in CS(C)=O) of the same compound?
The emission maximum was 608 nm.

And the emission maximum (in ClCCl)?
Its emission maximum is 615 nm.

What about the emission maximum (in NC=O) of the same compound?
The emission maximum was 577 nm.

What about the emission maximum (in O) of the same compound?
Its emission maximum is 560 nm.

What about the emission maximum (in OCCO) of the same compound?
The emission maximum was 573 nm.

With `Cc1ccc(C2=C3C=CC(Cl)=[N+]3[B-](F)(F)n3c(Cl)ccc32)cc1` as the compound, how does the emission maximum (in C1CCCCC1) read?
Its emission maximum is 525 nm.

And the emission maximum (in C1CCOC1)?
The emission maximum was 523 nm.

What about the emission maximum (in CC#N) of the same compound?
The emission maximum was 520 nm.

What about the emission maximum (in CCOC(C)=O) of the same compound?
The emission maximum was 521 nm.

And the emission maximum (in CO)?
Its emission maximum is 519 nm.

What about the emission maximum (in Cc1ccccc1) of the same compound?
Its emission maximum is 529 nm.

And the emission maximum (in ClC(Cl)Cl)?
The emission maximum was 526 nm.

Which emission maximum (in CC#N) does the source give for `CCCSc1ccc2n1[B-](F)(F)[N+]1=CC=CC1=C2c1ccccc1` here?
The emission maximum was 585 nm.

And the emission maximum (in CCCCCC)?
Its emission maximum is 588 nm.

What about the emission maximum (in CCOC(C)=O) of the same compound?
The emission maximum was 589 nm.

And the emission maximum (in CO)?
Its emission maximum is 583 nm.

What about the emission maximum (in ClCCl) of the same compound?
The emission maximum was 594 nm.
